Results taken from patent publication US20250049747A1, “USE OF HYPERPOLARIZING AGENTS ALONE AND IN COMBINATION WITH OTHER THERAPEUTIC AGENTS FOR TREATING CANCERS INCLUDING GLIOBLASTOMA” (Trustees of Tufts College, priority 2021, published 2025).
“Also recorded” adds a separate entry of the source.

Experiments:
NG108-15 cells [1] = assay: Automated patch-clamp electrophysiology, resting membrane potential; type: cell-based, mouse/rat; conditions: NG108-15, immediately after application
Method: Electrophysiology. SyncroPatch 384PE platform (Nanion Technologies®) was used to perform the automated patch-clamp experiments. This system provides giga-ohm resistance seals during simultaneous recording in the 384-well plate format. Cells were harvested 48-72 h after seeding 1-2×10^6 cells in T175 culture flasks (Falcon), then cells were rinsed with PBS (5 mL) and treated with 3 mL Accutase ([…] technologies) for 5 min at 37° C., re-suspended in 10 mL of serum-free media and pelleted at 1000 rpm for 3 min at RT. […] The cells were kept until the moment of the experiment in a temperature controlled dedicated reservoir at 10° C. and shaken at 200 rpm as described. The experiments were performed within one hour after the harvesting process. The assays were carried in single-hole chips with resistances between 4-5 MΩ after priming the chip with the following solutions (in mM), physiological extracellular solution (pECS) 10 HEPES, 140 NaCl, 5 Glucose, 4 KCl, 2 CaCl2), 1 MgCl2, 295-305 mOsm pH 7.4 (NaOH). Internal recording solution (in mM) 20 EGTA, 50 KCl, 10 NaCl, 60 KF, 10 HEPES at pH 7.2, and 285 mOsm. 15 μL of the cell suspension (50% v/v pECS/Medium no serum) was added to each well to a final density of 50-80K cells/mL. Cell capture was promoted by holding a negative pressure of −100 mbar for 20 s. After successive hyperpolarization steps from −30 mV to −100 mV enhanced the capture the seal followed by the transient addition of a high Ca2+ extracellular solution (80 mM NaCl, 3 mM KCl, 35 mM CaCl2), 10 mM MgCl2, 10 mM HEPES at pH 7.4 and 298 mOsm. High Ca2+ solution is washed out by successive external exchanges replacing half of the volume of the well each time with the external recording solution. All recording solutions were prepared with ultrapure MilliQ water (18 MD-cm). After the formation of the Giga-seal, a 250 mbar pressure was applied to break the membrane patch. Once in whole-cell configuration, different voltage protocols were applied to dissect different conductances in NG108-15 cells. Signals were recorded in the current-clamp mode “I=0” (passive conditions) where no current was injected, to monitor the membrane potential. The membrane potentials were recorded for seven sweeps of 1 sec, with an inter-sweep time of 10 s. The average membrane potentials of the 7 sweeps were reported.
Electrophysiology of NG108-15 Cells Show Changes in Resting Membrane Potential Induced by Treatment. […] Untreated cells were patched, baseline measurements were taken and then the drugs were added and the changes in the cell Vmem were recorded.

[2] = system: human glioblastoma U87 cells; assay: Growth and FUCCI assays in U87 cells (cell counts, cell cycle, recovery test); type: cell-based; conditions: for FUCCI cell cycle proportion: U87, day 6
Method: U87 (ATCC) cells were cultured under the same conditions as the NG108-15 cells minus the HAT supplement and used at passage 7-10 for experiments.

NG108-15 cells [3] = assay: Antibody staining, BrdU and senescence assays in NG108-15 cells; type: cell-based, mouse/rat; conditions: NG108-15, 6 days
Method: Antibody Staining, BrdU and Senescence Assays. NG108-15 cells were plated on PEI and Matrigel coated plates at 15,000 or 30,000 cells/mL, U87 cells at 10,000 cells/mL and grown in imaging media for 6 days with drug treatment. Fresh media was added every 2 days. On day 6, cells were fixed with 4% formaldehyde in PBS for 30 minutes for all antibody staining, except for BrdU which was fixed for 15 minutes, and for the senescence assay which was fixed for 20 min using the Senescence Beta-Galactosidase Staining Kit (9860, CellSignaling) and thereafter stained according to manufacturer's protocol. After fixing, cells were washed twice with PBS, and were permeabilized in PBS with 0.3% Triton-X for 15 min then washed again twice with PBS. The cells for the BrdU assay were additionally treated with 1N HCl for 10 min on ice, followed by a treatment with 2N HCl for 50 min at room temp. Cells were then blocked with standard blocking buffer comprised of TBS containing 10% goat serum, 0.1% BSA, and with 0.05% Tween 20 or without detergent for antibodies against phosphorylated proteins or monoclonal antibodies except for Anti-YAP and Anti-BrdU staining, which were done according to manufacturer's protocol. Primary antibodies were added at the following concentrations: 1:250 anti-S100 beta (GTX129573, Genetex), 1:500 anti-GFAP (AB5804, EMD-Millipore), 1:300 anti-SOX10 (ab155279, Abcam), 1:100 MAP2 (4542, CellSignaling), 1:400 anti-cleaved caspase 3 (9661, CellSignaling), 1:300 anti-Cx43 (STJ2411, St. John's Labratory), 1:800 anti-p27^Kip1 (3698, CellSignaling), 1:150 anti-BrdU (5292, CellSignaling), 1:125 anti-LC3-II (2775, CellSignaling), 8 μg/mL anti-04 (MAB1326, R&D Systems), 1:1000 anti-TH (RPCA-TH, Encor), 1:4000 anti-NSE (RPCA-NSE, Encor), 1:4000 anti-NFM (RPCA-NF-M, Encor), 0.5 μg/mL anti-TujI (801202, Biolegend), 1:400 anti-NF-KB p65 (8242, CellSignaling), 1:125 anti-phospho CREB (05-807, EMD-Millipore), 1:250 anti-vimentin (ab92547, Abcam), 1:125 anti-YAP (14074, CellSignaling). Antibodies were diluted in their respective blocking buffer and incubated overnight at 4° C. The next day, cells were washed with TBS-T or TBS for 3× for 5 min each and secondary antibody was added as follows: 1:1000 donkey anti-mouse 647 (A-31571, Thermo-Fisher) or 1:1000 donkey anti-rabbit 647 (A-31573, Thermo-Fisher). Each were diluted in blocking buffer along with 2.5 μg/mL Hoechst 33342 and incubated for 1 hour at room temperature. Cells were then washed again with TBS-T or TBS for 3× for 5 min each and covered with Gelvatol. Cells were imaged with an EVOS M7000 system, with at least 50% of each well in a 96 well plate imaged and analyzed using a CellProfiler pipeline for measuring integrated intensity, mean intensity, or nuclear to cytoplasmic ratio of mean intensities.

[4] = human, in vivo; cited from earlier work
NG108-15 cells [5] = assay: Growth and FUCCI assays in NG108-15 cells (cell counts, cell cycle, recovery test); conditions: for cell proliferation compared to control (words): NG108-15, 6 days of treatment
Method: Cells were plated in 96 well plates at a low confluence and drugs were added fresh every other day for 6 days. Some studies removed the drug at 6 days and added media with no drug for an additional 4 days to test for proliferation. Images of the cells were taken every day and a cell profiler pipeline was used to count the cells and determine the ratio of cells in each part of the cell cycle. […] Cell Culture. […] Cells were disassociated with Accutase and passaged when 70% confluent and maintained at 37° C. with 5% C02. Media was changed every two days. […] All drug screens including controls were done using 0.02% DMSO in the high serum Fluorobrite DMEM.
Growth and FUCCI assays. Both cell lines were plated at 5,000 cells per mL into black-walled flat-bottom 96-well plates coated with 1/50 dilution of Matrigel. Images of cells were taken on Day 0 and every subsequent day for 10 days using a Zeiss Axio1 fitted with an on-stage incubator and kept at 37° C. with 5% C02. A 5× objective was used along with filters for YFP, RFP, and CFP and careful calibration of each plate was done to ensure that the same fields of view were imaged each day. Drugs were added after the initial images were taken and then changed every two days until day 6. For recovery experiments, after imaging on day 6, all drugs were removed, and cells were put into imaging media without any added drugs. This media was changed every two days until day 10. Analysis of growth and snap shots of FUCCI reporters over the 6 days or 10 days was done using a CellProfiler [72]pipeline designed by the Broad. The fractional difference in cell number was calculated by dividing the total number of cells each day by the total number of cells from day 0. The ratio of cells in each cell cycle stage every day was determined by counting all the nuclei of one color and dividing it by the total number of nuclei. Blind quality control was done on all the images to make sure that any fibers or image artifacts were not incorrectly counted by the program.

[6] = cited from earlier work

Nc1nnc(-c2cccc(Cl)c2Cl)c(N)n1 [Lamotrigine, lamotrigine]
change in resting membrane potential compared to control (NG108-15 cells [1]): significantly hyperpolarized

CO[C@H]1C[C@@H]2CC[C@@H](C)[C@@](O)(O2)C(=O)C(=O)N2CCCC[C@H]2C(=O)O[C@H]([C@H](C)C[C@@H]2CC[C@@H](O)[C@H](OC)C2)CC(=O)[C@H](C)/C=C(\C)[C@@H](O)[C@@H](OC)C(=O)[C@H](C)C[C@H](C)/C=C/C=C/C=C/1C [Rapamycin, rapamycin]
FUCCI cell cycle proportion [2]: increase in the G1 proportion | change in resting membrane potential compared to control (NG108-15 cells [1]): significantly hyperpolarized | LC3-II stain (NG108-15 cells [3]): significant increase | blood-brain barrier penetrance [4]: cross the blood brain barrier effectively | cell proliferation compared to control (words) (NG108-15 cells [5]): very significant decrease in proliferation | FUCCI cell cycle proportion (NG108-15 cells [5]; NG108-15, day 6): increase in cells arrested at G1; also recorded: increased the proportion of cells in G1

CCOC(=O)Nc1ccc(NCc2ccc(F)cc2)cc1N [Retigabine, retigabine]
change in resting membrane potential compared to control (NG108-15 cells [1]): significantly hyperpolarized; also recorded: hyperpolarized NG108-15 cells only slightly | BrdU incorporation (NG108-15 cells [3]): significant decrease | cleaved caspase 3 staining (NG108-15 cells [3]): decrease the cleaved caspase 3 positive cells significantly | plasma protein binding affinity [6]: about 80%

Cn1nnc2c(C(N)=O)ncn2c1=O [TMZ, temozolomide]
cell proliferation compared to control (words) ([2]; U87, 6 days): significantly effective | percent reduction in cells compared to control ([2]; U87, 6 days of treatment): 43% | FUCCI cell cycle proportion [2]: did not show a large change in proportion of cells | recovery of proliferation after treatment removed ([2]; U87, drugs removed at day 6, followed to day 10): slight increase in proliferation after treatment was removed | change in resting membrane potential compared to control (NG108-15 cells [1]): significantly hyperpolarized | cell proliferation compared to control (words) (NG108-15 cells [5]): not significantly effective at reducing proliferation | cell proliferation compared to control (words) (NG108-15 cells [5]; listed as temozolomide): not effective
